tested on: Human primary melanocytes; assay: Melanin synthesis on melanocyte cells in vitro (melanin content assay); type: cell-based; settings: 72 hrs treatment with actives in MGM media at the stated wt %; absorbance 405 nm
Protocol: Experiments were carried out on melanocyte cells using the actives as shown in Table-3 using the procedure given below; • 1. Human primary melanocytes were seeded at a density of 5×10^4 per well into a 24 well plate with fresh melanocyte growth media (MGM). • 2. Post 24 hrs seeding, cells were treated with actives in fresh MGM media and incubated for 72 hrs at 5% CO2/37° C. incubator. • 3. After 72 h of incubation, melanin estimation was done. Melanin content estimation: Cell culture spent media was removed and cells were washed once with 200 μl of 1×PBS. […] Then 100 μl of this lysate was transferred to a fresh 384 well plate and absorbance was measured spectrophotometric at 405 nm with a micro plate reader.

SMILES | Melanin synthesis (% of control)
NC(=O)c1cccnc1 [E, niacinamide] | 97 % of control
CCCCCCC(O)CCCCCCCCCCC(=O)O (stereo not drawn) [F, 12-hydroxystearic acid] | 98 % of control
CC(O)CN(CCN(CC(C)O)CC(C)O)CC(C)O (stereo not drawn) [D, tetrahydroxypropyl ethylenediamine] | 91 % of control
